Data on 23 molecules can be found in patent US10227357B2, “Compounds and methods for kinase modulation, and indications therefor” (Plexxikon Inc., priority 2012, dated 2019).

For one test, the target named is T1, c-kit kinase (Homo sapiens, UniProt P10721).
T1 construct: The c-kit (or kinase domain thereof) is an active kinase in AlphaScreen; poly-Histidine tag (in-house protein only) (cleaved yes); host or cells: E. coli BL21(DE3)RIL, co-expressed with PTP1B
Nature of the test: c-Kit biochemical assay, AlphaScreen, 10 μM ATP. Particulars: c-kit biochemical inhibitory activity; read-out: Biochemical activity (IC50 μM) Kit. In short, it runs like this: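 His-tagged c-Kit expressed in E. coli with co-expressed PTP1B (dephosphorylated), tag removed; 0.1 ng per reaction with biotinylated-peptide substrate in 50 mM HEPES pH 7.2, 5 mM MgCl2, 5 mM MnCl2, 5% DMSO, 10 μM ATP, 1 h at room temperature. Phosphorylation detected by AlphaScreen (streptavidin donor, PY20 acceptor beads); IC50 from 8-point 1:3 dilution series.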
(Bead proximity is the source of the signal in Alpha formats.)

The next test concerns the target T2, c-kit mutant D816V (Homo sapiens, UniProt P10721, D816V/DEL694-753).
T2 construct: residues 551-934, kinase insertion domain residues 694-753 deleted; 6x-histidine (N); made in house; host or cells: E. coli Arctic Express (DE3) RIL (Stratagene)
Nature of the test: c-Kit mutant D816V biochemical assay, AlphaScreen. Particulars: c-kit D816V biochemical inhibitory activity; read-out: Biochemical activity (IC50 μM) Kit D816V. In short, it runs like this: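 Eight-point, threefold compound series incubated 30 min at room temperature with E. coli-produced D816V kinase, 10 μM ATP, Mg2+/Mn2+ HEPES buffer pH 7.2 and 5% DMSO. After EDTA stop, streptavidin and anti-phosphotyrosine (PY20) AlphaScreen beads gave the read-out, and IC50 was fitted from the concentration–signal curve.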

T1 sequence (P10721 26-976): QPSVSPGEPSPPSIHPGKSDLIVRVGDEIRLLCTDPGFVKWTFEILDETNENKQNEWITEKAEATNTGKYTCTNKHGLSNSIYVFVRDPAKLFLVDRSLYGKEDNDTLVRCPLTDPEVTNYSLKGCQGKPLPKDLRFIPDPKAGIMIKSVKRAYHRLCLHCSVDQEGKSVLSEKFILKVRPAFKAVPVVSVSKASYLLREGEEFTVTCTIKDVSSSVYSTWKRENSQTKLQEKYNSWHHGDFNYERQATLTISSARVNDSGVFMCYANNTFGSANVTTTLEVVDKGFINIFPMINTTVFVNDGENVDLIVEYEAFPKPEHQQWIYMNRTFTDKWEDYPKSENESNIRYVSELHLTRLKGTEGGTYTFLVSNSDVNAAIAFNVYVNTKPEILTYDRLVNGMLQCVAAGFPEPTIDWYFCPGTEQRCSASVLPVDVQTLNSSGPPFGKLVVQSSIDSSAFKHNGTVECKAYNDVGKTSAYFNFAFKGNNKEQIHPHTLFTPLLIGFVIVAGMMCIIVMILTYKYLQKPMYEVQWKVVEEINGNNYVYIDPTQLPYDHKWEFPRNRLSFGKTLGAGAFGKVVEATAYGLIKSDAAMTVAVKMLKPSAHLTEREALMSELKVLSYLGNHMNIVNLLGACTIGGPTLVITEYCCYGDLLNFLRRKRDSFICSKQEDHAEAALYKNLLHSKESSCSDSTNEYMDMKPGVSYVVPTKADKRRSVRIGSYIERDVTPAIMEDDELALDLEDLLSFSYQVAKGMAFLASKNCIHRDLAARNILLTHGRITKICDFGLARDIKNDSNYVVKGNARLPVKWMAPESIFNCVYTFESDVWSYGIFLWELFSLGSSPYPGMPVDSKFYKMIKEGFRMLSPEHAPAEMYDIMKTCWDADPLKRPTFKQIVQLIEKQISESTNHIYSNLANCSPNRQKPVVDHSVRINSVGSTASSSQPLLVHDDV
T2 sequence (P10721 with tags, fused parts or gaps DEL694-753/D816V): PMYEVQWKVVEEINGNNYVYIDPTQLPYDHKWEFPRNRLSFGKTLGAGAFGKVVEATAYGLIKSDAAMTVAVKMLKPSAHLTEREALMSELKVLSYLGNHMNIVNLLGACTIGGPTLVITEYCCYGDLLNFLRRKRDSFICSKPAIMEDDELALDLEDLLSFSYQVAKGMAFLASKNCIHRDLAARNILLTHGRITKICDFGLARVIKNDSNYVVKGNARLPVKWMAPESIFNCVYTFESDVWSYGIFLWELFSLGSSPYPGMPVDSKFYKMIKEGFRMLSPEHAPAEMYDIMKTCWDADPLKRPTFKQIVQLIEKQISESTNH

For `Cc1cc2c(-c3ccc(NS(=O)(=O)c4ccc(C(F)(F)F)cc4)cc3)ncnc2[nH]1` [P-0317, N-[4-(6-methyl-7H-pyrrolo[2,3-d]pyrimidin-4-yl)phenyl]-4-(trifluoromethyl)benzenesulfonamide], the concentration for half-maximal inhibition (IC50) (as a rule, the concentration needed to halve the response being measured) at c-kit kinase lay within 10 to 200 µM; at c-kit mutant D816V it was 0.0001 to 1 µM.

As for `Cc1cc2c(-c3ccc(NS(=O)(=O)c4ccc(Br)cc4)cc3)ncnc2[nH]1` [P-0318, 4-bromo-N-[4-(6-methyl-7H-pyrrolo[2,3-d]pyrimidin-4-yl)phenyl]benzenesulfonamide], the IC50 on c-kit kinase and at c-kit mutant D816V was 1 to 10 µM in each case.

For `CNS(=O)(=O)c1cccc(-c2ncnc3[nH]c(C)cc23)c1` [P-0319, N-methyl-3-(6-methyl-7H-pyrrolo[2,3-d]pyrimidin-4-yl)benzenesulfonamide], the IC50 at c-kit kinase and on c-kit mutant D816V was 10 to 200 µM throughout.

Regarding `Cc1cc2c(-c3cccc(NS(C)(=O)=O)c3)ncnc2[nH]1` [P-0320, N-[3-(6-methyl-7H-pyrrolo[2,3-d]pyrimidin-4-yl)phenyl]methanesulfonamide], the IC50 on c-kit kinase and on c-kit mutant D816V was 10 to 200 µM in each case.

As to `O=S(=O)(Nc1ccc(-c2ncnc3[nH]c(C4=CCCC4)cc23)c(F)c1)c1ccc(F)cc1` [P-0321, N-[4-[6-(cyclopenten-1-yl)-7H-pyrrolo[2,3-d]pyrimidin-4-yl]-3-fluoro-phenyl]-4-fluoro-benzenesulfonamide], the IC50 at c-kit kinase and on c-kit mutant D816V was 0.0001 to 1 µM throughout.

Take `Cc1cc2c(-c3ccc(NS(=O)(=O)c4cnn(C(F)F)c4)cc3)ncnc2[nH]1` [P-0322, 1-(difluoromethyl)-N-[4-(6-methyl-7H-pyrrolo[2,3-d]pyrimidin-4-yl)phenyl]pyrazole-4-sulfonamide]: the figures for the IC50 on c-kit kinase and on c-kit mutant D816V were 10 to 200 µM and 1 to 10 µM, respectively.

On to `Cc1cc2c(-c3ccc(NS(=O)(=O)c4ccc(Cl)s4)cc3)ncnc2[nH]1` [P-0323, 5-chloro-N-[4-(6-methyl-7H-pyrrolo[2,3-d]pyrimidin-4-yl)phenyl]thiophene-2-sulfonamide], for which the IC50 at c-kit kinase and at c-kit mutant D816V was 1 to 10 µM each time.

As to `COc1ccc(S(=O)(=O)Nc2ccc(-c3ncnc4[nH]c(C)cc34)cc2)cn1` [P-0324, 6-methoxy-N-[4-(6-methyl-7H-pyrrolo[2,3-d]pyrimidin-4-yl)phenyl]pyridine-3-sulfonamide], the IC50 on c-kit kinase and at c-kit mutant D816V was 1 to 10 µM in each case.

With `COc1ccc(S(=O)(=O)Nc2ccc(-c3ncnc4[nH]c(C)cc34)cc2)cc1F` [P-0325, 3-fluoro-4-methoxy-N-[4-(6-methyl-7H-pyrrolo[2,3-d]pyrimidin-4-yl)phenyl]benzenesulfonamide], the IC50 on c-kit kinase is 10 to 200 µM; on c-kit mutant D816V, 1 to 10 µM.

As to `COc1ccc(S(=O)(=O)Nc2ccc(-c3ncnc4[nH]c(C)cc34)cc2)cc1` [P-0326, 4-methoxy-N-[4-(6-methyl-7H-pyrrolo[2,3-d]pyrimidin-4-yl)phenyl]benzenesulfonamide], the IC50 at c-kit kinase and on c-kit mutant D816V was 1 to 10 µM throughout.

For the molecule `O=S(=O)(Nc1ccc(Cl)cc1)c1ccc(-c2ncnc3[nH]c(-c4ccc(F)cc4)cc23)c(F)c1` [P-0327, N-(4-chlorophenyl)-3-fluoro-4-[6-(4-fluorophenyl)-7H-pyrrolo[2,3-d]pyrimidin-4-yl]benzenesulfonamide], the figures for the IC50 on c-kit kinase and at c-kit mutant D816V were 10 to 200 µM and 0.0001 to 1 µM, respectively.

For `O=S(=O)(Nc1ccc(F)cc1)c1ccc(-c2ncnc3[nH]c(-c4ccc(F)cc4)cc23)c(F)c1` [P-0328, 3-fluoro-N-(4-fluorophenyl)-4-[6-(4-fluorophenyl)-7H-pyrrolo[2,3-d]pyrimidin-4-yl]benzenesulfonamide], the IC50 at c-kit kinase lay in the range of 10 to 200 µM; on c-kit mutant D816V it was 0.0001 to 1 µM.

Regarding `Cc1cc2c(-c3ccc(NS(=O)(=O)c4ccc(OC(F)F)cc4)cc3)ncnc2[nH]1` [P-0329, 4-(difluoromethoxy)-N-[4-(6-methyl-7H-pyrrolo[2,3-d]pyrimidin-4-yl)phenyl]benzenesulfonamide], the IC50 on c-kit kinase and at c-kit mutant D816V was 10 to 200 µM in each case.

In the case of `Cc1cc2c(-c3ccc(NS(=O)(=O)c4ccc(Cl)cc4)cc3)ncnc2[nH]1` [P-0330, 4-chloro-N-[4-(6-methyl-7H-pyrrolo[2,3-d]pyrimidin-4-yl)phenyl]benzenesulfonamide], the IC50 on c-kit kinase and at c-kit mutant D816V was 1 to 10 µM each time.

For `Cc1cc2c(-c3ccc(NS(=O)(=O)c4ccc(F)cc4)cc3)ncnc2[nH]1` [P-0331, 4-fluoro-N-[4-(6-methyl-7H-pyrrolo[2,3-d]pyrimidin-4-yl)phenyl]benzenesulfonamide], the 50% inhibitory concentration (IC50) at c-kit kinase and at c-kit mutant D816V was 1 to 10 µM throughout.

Consider `CS(=O)(=O)Nc1ccc(-c2ncnc3[nH]c(-c4ccc(F)cc4F)cc23)c(F)c1` [P-0333, N-[4-[6-(2,4-difluorophenyl)-7H-pyrrolo[2,3-d]pyrimidin-4-yl]-3-fluoro-phenyl]methanesulfonamide], for which the IC50 at c-kit kinase and on c-kit mutant D816V was 0.0001 to 1 µM each time.

For `Cc1cc2c(-c3ccc(NS(=O)(=O)c4cc(F)ccc4F)cc3F)ncnc2[nH]1` [P-0335, 2,5-difluoro-N-[3-fluoro-4-(6-methyl-7H-pyrrolo[2,3-d]pyrimidin-4-yl)phenyl]benzenesulfonamide], the IC50 at c-kit kinase and on c-kit mutant D816V was 1 to 10 µM each time.

Regarding `Cc1cc2c(-c3ccc(S(=O)(=O)Nc4ccc(F)cc4)cc3F)ncnc2[nH]1` [P-0336, 3-fluoro-N-(4-fluorophenyl)-4-(6-methyl-7H-pyrrolo[2,3-d]pyrimidin-4-yl)benzenesulfonamide], the figures for the IC50 at c-kit kinase and on c-kit mutant D816V were 10 to 200 µM and 1 to 10 µM, respectively.

As to `O=S(=O)(Nc1ccc(-c2ncnc3[nH]c(-c4cc(F)ccc4F)cc23)c(F)c1)c1ccc(Cl)cc1` [P-0337, 4-chloro-N-[4-[6-(2,5-difluorophenyl)-7H-pyrrolo[2,3-d]pyrimidin-4-yl]-3-fluoro-phenyl]benzenesulfonamide], the half-maximal inhibitory concentration (IC50) at c-kit kinase lay within 10 to 200 µM; on c-kit mutant D816V, 0.0001 to 1 µM.

For the molecule `O=S(=O)(Nc1ccc(-c2ncnc3[nH]c(-c4cc(F)ccc4F)cc23)c(F)c1)C1CC1` [P-0338, N-[4-[6-(2,5-difluorophenyl)-7H-pyrrolo[2,3-d]pyrimidin-4-yl]-3-fluoro-phenyl]cyclopropanesulfonamide], the values for the IC50 at c-kit kinase and on c-kit mutant D816V were 10 to 200 µM and 1 to 10 µM, respectively.

For the molecule `CS(=O)(=O)Nc1ccc(-c2ncnc3[nH]c(-c4cc(F)ccc4F)cc23)c(F)c1` [P-0339, N-[4-[6-(2,5-difluorophenyl)-7H-pyrrolo[2,3-d]pyrimidin-4-yl]-3-fluoro-phenyl]methanesulfonamide], the IC50 on c-kit kinase fell in the range of 1 to 10 µM; at c-kit mutant D816V it was 0.0001 to 1 µM.

For `O=S(=O)(Nc1ccc(-c2ncnc3[nH]c(-c4ccc(F)cc4F)cc23)c(F)c1)C1CC1` [P-0340, N-[4-[6-(2,4-difluorophenyl)-7H-pyrrolo[2,3-d]pyrimidin-4-yl]-3-fluoro-phenyl]cyclopropanesulfonamide], the IC50 fell in the range of 10 to 200 µM on c-kit kinase and 0.0001 to 1 µM at c-kit mutant D816V.

`Cc1cc2c(-c3ccc(NS(=O)(=O)c4cc(F)cc(F)c4)cc3F)ncnc2[nH]1` [P-0342, 3,5-difluoro-N-[3-fluoro-4-(6-methyl-7H-pyrrolo[2,3-d]pyrimidin-4-yl)phenyl]benzenesulfonamide]: the IC50 on c-kit kinase and at c-kit mutant D816V was 10 to 200 µM in each case.
